# Results published in PMC12472947 (Pharmaceuticals, 2025).
# “Also recorded” adds a separate entry of the source. Read-outs that look alike come from different tables or passages of the source.
# How the values were obtained:
# [1] = tested on: SH-SY5Y neuroblastoma cells; settings: 50 μM, ref [28],[29]; cited from earlier work
# [2] = molecular target: T1, hH3R (Homo sapiens, UniProt Q9Y5N1); experiment: H3R radioligand displacement assay ([3H]-N-α-methylhistamine); type: binding; settings: 95% confidence interval in brackets; HEK-293 membranes
# T1 construct: expressed in transfected cells; host or cells: HEK-293
# Procedure: HEK-293 cells (human embryonic kidney cells) stably expressing hH3R were washed and harvested in PBS buffer (phosphate-buffered saline). […] The cell membrane homogenate was centrifuged (20,000× g, 20 min, 4 °C), and the resulting pellet was resuspended in binding buffer and stored at −80 °C until use.
# Prior to experiments, the cell membranes were thawed, homogenized by sonication at 4 °C, and kept in ice-cold binding buffer. Crude membrane extracts (20 μg/well in a final volume of 0.2 mL binding buffer) were incubated with [^3H]-N-α-methylhistamine (2 nM; 78.3 Ci/mmol) and varying concentrations of test compounds. Assays were performed in duplicate, with compound concentrations ranging from 0.01 nM to 100 μM. Incubations proceeded for 90 min at room temperature under continuous agitation.
# Bound radioligand was separated from free radioligand by filtration through GF/B filters pretreated with 0.3% (w/v) polyethyleneimine, using a cell harvester. Radioactivity was quantified by liquid scintillation counting. Data were analyzed using GraphPad Prism v8 (San Diego, CA, USA) software, employing non-linear regression analysis.
# [3] = molecular target: T2, hMAO-B (Homo sapiens, UniProt P27338); experiment: biochemical; type: biochemical; settings: test concentration of 1 µM; read-out: Percentage of MAO-B inhibition ± SEM
# T2 construct: purchased Sigma-Aldrich, Gillingham, UK
# T2 sequence (P27338 1-520): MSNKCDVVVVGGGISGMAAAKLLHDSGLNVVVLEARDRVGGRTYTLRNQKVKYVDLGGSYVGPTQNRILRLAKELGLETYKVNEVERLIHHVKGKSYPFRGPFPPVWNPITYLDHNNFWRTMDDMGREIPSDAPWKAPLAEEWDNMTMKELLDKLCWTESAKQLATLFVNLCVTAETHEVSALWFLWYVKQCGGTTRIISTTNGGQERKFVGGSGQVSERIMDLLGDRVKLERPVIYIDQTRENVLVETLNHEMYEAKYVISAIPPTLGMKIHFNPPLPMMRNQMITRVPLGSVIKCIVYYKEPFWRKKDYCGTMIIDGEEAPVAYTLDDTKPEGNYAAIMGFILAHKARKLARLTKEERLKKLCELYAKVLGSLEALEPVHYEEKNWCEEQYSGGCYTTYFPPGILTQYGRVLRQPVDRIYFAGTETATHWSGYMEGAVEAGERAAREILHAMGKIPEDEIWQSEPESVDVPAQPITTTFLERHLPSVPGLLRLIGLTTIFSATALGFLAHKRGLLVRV
# Procedure: (§1) The activity of human recombinant membrane-bound monoamine oxidase isoforms A and B (MAO-A/B) (Sigma-Aldrich, Gillingham, UK) in 50 mM potassium phosphate buffer (pH 7.5) was determined by measuring hydrogen peroxide production coupled to the fluorescent dye Amplex Red (Sigma-Aldrich, UK) at a final concentration of 50 μM, in the presence of horseradish peroxidase (HRP, 2.5 U/mL). This coupling reaction generates the fluorescent product resorufin, which was quantified at 30 °C using a fluorescence plate reader.
# (§2) Reactions were initiated by adding the substrate and dye after a 30 min preincubation of the inhibitor with the enzyme. Data were analyzed using a three-parameter equation in GraphPad Prism 7.0 (San Diego, USA). Each reported value represents the mean of at least two independent determinations.
# [4] = molecular target: electric eel AChE [EeAChE] (Electrophorus electricus, UniProt O42275); experiment: biochemical; type: biochemical; settings: for IC50: Electric eel AChE, Ellman method, read-out: IC50(nM) ± SD AChE (EeAChE); for SI: Selectivity Index = EqBChE IC50/EeAChE IC50
# Procedure: (§3) The anticholinesterase activity was determined using Ellman’s method, adapted as follows. […] Subsequently, 60 μL of 5,5′-dithiobis(2-nitrobenzoic acid) (DTNB, 1.1 mM) and 30 μL of enzyme solution (electric eel AChE [EeAChE], human AChE [hAChE], or equine serum BChE [EqBChE], 0.20 U/mL) containing 1 mg/mL bovine serum albumin (BSA) were added. […] Enzyme activity was calculated as the percentage relative to untreated controls, subtracting the blank reference. IC50 values were derived via non-linear regression analysis of dose–response curves (Figure S4) using GraphPad Prism v7.0.
# [5] = molecular target: T3, equine serum BChE [EqBChE] (Equus caballus, UniProt P81908); experiment: biochemical; settings: Ellman method, read-out: IC50(nM) ± SD BChE (EqBChE)
# T3 construct: equine serum BChE [EqBChE]; from tissue; host or cells: equine serum
# Procedure: as §3
# [6] = molecular target: T4, hMAO-A (Homo sapiens, UniProt P21397); experiment: MAO-A inhibition, fluorometric Amplex Red assay; type: biochemical; settings: test concentration of 1 µM; read-out: Percentage of MAO-A inhibition ± SEM
# T4 construct: purchased Sigma-Aldrich, Gillingham, UK
# T4 sequence (P21397 1-527): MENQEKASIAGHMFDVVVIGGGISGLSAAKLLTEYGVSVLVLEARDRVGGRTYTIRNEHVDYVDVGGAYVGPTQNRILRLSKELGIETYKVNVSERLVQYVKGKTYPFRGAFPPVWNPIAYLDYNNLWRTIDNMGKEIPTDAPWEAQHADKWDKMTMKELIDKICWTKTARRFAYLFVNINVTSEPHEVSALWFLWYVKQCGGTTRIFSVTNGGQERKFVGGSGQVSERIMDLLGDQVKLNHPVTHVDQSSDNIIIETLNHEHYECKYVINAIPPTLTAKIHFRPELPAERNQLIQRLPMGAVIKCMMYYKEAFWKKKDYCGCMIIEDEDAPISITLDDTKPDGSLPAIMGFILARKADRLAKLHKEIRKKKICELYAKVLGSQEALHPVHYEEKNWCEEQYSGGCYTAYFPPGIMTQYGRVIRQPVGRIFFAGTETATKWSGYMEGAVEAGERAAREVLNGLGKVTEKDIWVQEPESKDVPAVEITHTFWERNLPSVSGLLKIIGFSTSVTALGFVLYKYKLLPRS
# Procedure: as §1, with “reader. […].” for “reader.”
# as §2
# [7] = tested on: SH-SY5Y neuroblastoma cells; experiment: Cytotoxicity (neurotoxicity) MTT assay in SH-SY5Y; type: cell-based; settings: up to 50 µM
# Procedure: (§4) The immortalized human neuroblastoma cell line (SH-SY5Y–ATCC: CRL-2226; BCRJ:0223) was used to evaluate cytotoxicity. The cell line was cultured in Dulbecco’s Modified Eagle’s Medium and F12 in a 1:1 ratio (DMEM:F12; Sigma-Aldrich code 0697, Brazil) supplemented with 10% fetal bovine serum (FBS; Sigma-Aldrich code F2442, Brazil) and 1% streptomycin/penicillin (10,000 U/mL and 10,000 μg/mL, respectively; Nova Biotecnologia code BR30110-01, Cotia, SP, Brazil) and incubated at 37 °C with 5% CO2. The culture medium was replaced every 48 h, until the cells reached semi-confluence (≥70%). Cell passage was carried out with the aid of trypsin-EDTA/0.25% solution (Nova Biotecnologia, Brazil) and divided between 5 or 8 mL culture volumes depending on the respective bottles (25 or 75 cm^2) used.
# (§5) The in vitro cytotoxicity assay evaluated cell viability using the [3-(4,5-dimethylthiazol-2yl)-2,5-diphenyl tetrazolium] bromide (MTT) reduction assay. Cells were seeded at an initial density of 5.0 × 10^4 cells/well in 96-well plates in a volume of 200 µL. […] In the next step, the culture medium was replaced by the sample solution previously described (Section 3.4.2). After 24 h exposure, the medium was replaced with 100 μL of MTT in phosphate-buffer saline (PBS), pH 7.4, at a concentration of 0.5 mg.mL^−1/well and the plates were incubated for an additional 3 h. Then, the MTT solution was removed, and 100 μL of DMSO was added to solubilize the formazan crystals. The cell viability was measured by absorbance at 562 nm using a Microplate Absorbance Reader (Kasuaki, Brazil). All concentrations tested were evaluated in nine replicates (n = 9). The variation in results was observed using ANOVA followed by Tukey’s test for multiple comparisons through GraphPad Prism v5^TM with a significance level of p < 0.05.
# [8] = Cytotoxicity (neurotoxicity) MTT assay in SH-SY5Y; type: cell-based; settings: human, SH-SY5Y neuroblastoma cells
# Procedure: as §4, §5
# [9] = molecular target: human AChE [hAChE] (Homo sapiens, UniProt P22303); experiment: biochemical
# Procedure: as §3
# [10] = molecular target: T5, equine serum butyrylcholinesterase (EqBuChE) (Equus caballus, UniProt P81908); experiment: Enzymatic kinetic study, EqBChE; type: biochemical; settings: BChE
# T5 construct: equine serum BChE [EqBChE]; from tissue; host or cells: equine serum
# Procedure: (§6) The enzymatic kinetics of cholinesterase inhibition were determined according to an adapted Ellman’s method. All of the solutions were prepared at 20 °C in 0.02 M Tris-HCl buffer (pH 7.5; ionic strength ~0.02 M), stock solutions of test compounds were prepared in DMSO:EtOH (7:3) mixture (20 mM), and the experiment was conducted in triplicate. To a flat-bottom 96-well transparent plate (path length of 0.6 cm) were added 150 μL of treatment solutions with inhibitors 1a, 1h, and 1j at two different concentrations (Table S1) distributed in eight sets of triplicate each. Eight sets of untreated triplicates were used as a negative control. Following, there were added 60 μL of 5,5′-Dithiobis(2-nitrobenzoic acid) (DTNB, Ellman’s reagent) at 1.1 mM and 30 μL of electric eel acetylcholinesterase (EeAChE) or equine serum butyrylcholinesterase (EqBuChE) at 0.20 U/mL in the presence of 1 mg/mL bovine serum albumin (BSA). […] Ki, Ki’ (competitive and noncompetitive inhibition constants, respectively), Km (Michaelis-Menten constant), and Vmax values were calculated with Graphpad Prism v7.0 using the non-linear regression models for enzyme kinetics inhibition and enzyme kinetics–substrate vs. velocity.
# [11] = tested on: H2O2-damaged SH-SY5Y cells; experiment: In vitro neuroprotection against H2O2 in SH-SY5Y (MTT); settings: Homo sapiens, SH-SY5Y, read-out: Cell viability (% of control)
# Procedure: For the neuroprotection assay, the cells previously cultured (Section 3.4.1) were seeded in 96-well plates at a density of 5 × 10^4 cells/well in a volume of 200 µL. The plates were incubated at 37 °C containing 5% CO2 for 24 h. After 24 h, the medium was replaced with the test solutions. […] Finally, the test solutions were removed, the cells were washed with PBS pH 7.4, and the H2O2 solution was added and maintained in contact with the cells for 24 h. After 24 h exposure, the neuroprotective capacity was assessed through cell viability using the MTT assay protocol previously described in Section 3.4.3 [52, 53].
# [12] = molecular target: electric eel acetylcholinesterase (EeAChE) (Electrophorus electricus, UniProt O42275); experiment: Enzymatic kinetic study, EeAChE; type: biochemical; settings: AChE
# Procedure: as §6
# [13] = molecular target: T3, equine serum BChE [EqBChE]; set-up: method as in PMID 30727776; settings: Figure 1; ref [22]; read-out: EqBChE (IC50 of prototype); cited from earlier work
# [14] = competitive inhibition constant (Table S2), read-out: Ki (nM) ± SD
# [15] = global non-linear regression, mixed inhibition (Table S3)
# T3 sequence (P81908 whole entry): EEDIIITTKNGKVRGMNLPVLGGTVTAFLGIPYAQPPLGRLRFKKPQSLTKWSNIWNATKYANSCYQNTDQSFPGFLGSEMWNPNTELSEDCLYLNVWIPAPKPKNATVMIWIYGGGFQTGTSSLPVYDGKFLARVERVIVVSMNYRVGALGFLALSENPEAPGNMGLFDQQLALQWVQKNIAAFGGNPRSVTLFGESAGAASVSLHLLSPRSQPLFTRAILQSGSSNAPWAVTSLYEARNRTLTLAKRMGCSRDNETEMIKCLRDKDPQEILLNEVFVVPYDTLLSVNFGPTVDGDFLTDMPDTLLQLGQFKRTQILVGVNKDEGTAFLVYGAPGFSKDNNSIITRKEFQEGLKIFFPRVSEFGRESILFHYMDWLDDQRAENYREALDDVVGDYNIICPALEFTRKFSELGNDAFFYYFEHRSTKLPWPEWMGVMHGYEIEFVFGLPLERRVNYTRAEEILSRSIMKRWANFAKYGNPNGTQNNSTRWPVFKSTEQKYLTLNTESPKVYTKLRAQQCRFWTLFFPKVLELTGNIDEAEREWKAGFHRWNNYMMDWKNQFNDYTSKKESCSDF
# T5 sequence (P81908 whole entry): as above
# Sequence of electric eel AChE [EeAChE] (O42275 24-633): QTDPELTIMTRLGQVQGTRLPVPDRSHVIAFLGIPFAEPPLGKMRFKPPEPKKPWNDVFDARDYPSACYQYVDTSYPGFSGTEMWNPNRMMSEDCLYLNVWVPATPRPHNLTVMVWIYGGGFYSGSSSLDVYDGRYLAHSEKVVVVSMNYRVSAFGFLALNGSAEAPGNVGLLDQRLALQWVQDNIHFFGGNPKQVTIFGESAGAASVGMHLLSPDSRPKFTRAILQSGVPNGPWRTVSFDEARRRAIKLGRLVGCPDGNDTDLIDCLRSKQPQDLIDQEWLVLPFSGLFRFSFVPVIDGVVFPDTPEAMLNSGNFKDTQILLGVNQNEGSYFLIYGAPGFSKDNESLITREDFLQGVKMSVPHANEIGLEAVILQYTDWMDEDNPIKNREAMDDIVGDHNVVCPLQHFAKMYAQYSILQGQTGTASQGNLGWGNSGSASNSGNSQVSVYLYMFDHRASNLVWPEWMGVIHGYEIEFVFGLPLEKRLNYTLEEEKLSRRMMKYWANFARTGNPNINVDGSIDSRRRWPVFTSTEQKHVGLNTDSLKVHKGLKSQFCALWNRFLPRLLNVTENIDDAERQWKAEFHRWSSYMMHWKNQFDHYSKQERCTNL
# Sequence of electric eel acetylcholinesterase (EeAChE) (O42275 24-633): as above
# Sequence of human AChE [hAChE] (P22303 32-614): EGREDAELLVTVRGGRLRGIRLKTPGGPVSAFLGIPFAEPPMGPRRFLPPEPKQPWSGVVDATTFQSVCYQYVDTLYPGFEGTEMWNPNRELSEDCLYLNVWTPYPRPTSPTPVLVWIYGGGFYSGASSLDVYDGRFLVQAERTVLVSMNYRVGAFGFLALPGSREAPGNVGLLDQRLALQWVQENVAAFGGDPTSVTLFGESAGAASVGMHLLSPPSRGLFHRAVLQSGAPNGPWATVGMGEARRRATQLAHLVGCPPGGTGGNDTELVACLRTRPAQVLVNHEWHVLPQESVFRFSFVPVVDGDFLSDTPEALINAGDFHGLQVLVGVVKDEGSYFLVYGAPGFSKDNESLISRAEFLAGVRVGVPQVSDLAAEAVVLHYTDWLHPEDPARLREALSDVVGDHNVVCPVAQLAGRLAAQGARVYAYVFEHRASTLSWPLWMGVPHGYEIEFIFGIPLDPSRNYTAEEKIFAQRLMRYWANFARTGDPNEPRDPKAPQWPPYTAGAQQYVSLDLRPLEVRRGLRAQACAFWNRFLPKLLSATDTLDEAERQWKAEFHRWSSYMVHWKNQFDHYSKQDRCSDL
# T1 sequence (Q9Y5N1 whole entry): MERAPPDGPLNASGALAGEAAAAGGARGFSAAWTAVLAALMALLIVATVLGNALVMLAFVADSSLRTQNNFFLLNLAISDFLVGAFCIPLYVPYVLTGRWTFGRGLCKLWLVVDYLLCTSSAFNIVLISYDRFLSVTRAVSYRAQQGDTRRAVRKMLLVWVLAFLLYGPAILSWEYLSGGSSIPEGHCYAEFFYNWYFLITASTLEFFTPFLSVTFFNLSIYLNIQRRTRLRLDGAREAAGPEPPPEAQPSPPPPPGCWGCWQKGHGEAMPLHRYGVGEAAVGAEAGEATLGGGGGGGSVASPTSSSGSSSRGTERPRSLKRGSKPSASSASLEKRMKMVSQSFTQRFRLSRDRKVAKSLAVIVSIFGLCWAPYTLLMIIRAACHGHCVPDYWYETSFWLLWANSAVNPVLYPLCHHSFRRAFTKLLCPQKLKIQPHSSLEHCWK
smiles,measurement,setting,value
Nc1c2c(nc3ccccc13)CCCC2 [tacrine],cell viability,[1],97%
"O=c1oc2cc(OCCCN3CCCCC3)ccc2cc1-c1cn(-c2ccccc2)nn1 [Compound 1b, 3-(1-Phenyl-1H-1,2,3-triazol-4-yl)-7-(3-(piperidin-1-yl)propoxy)-2H-chromen-2-one]",Ki,[2],32 nM
same,inhibition at 1 µM,[3],11.4 ± 1.9%
same,IC50,[4],1330 ± 45 nM
same,SI,[4],3
same,IC50,[5],3970 ± 94 nM
same,inhibition at 1 µM,[6],6.4 ± 0.5%
"COc1cccc(Cn2cc(-c3cc4ccc(OCCN5CCCCC5)cc4oc3=O)nn2)c1 [Compound 1j, 3-(1-(3-Methoxybenzyl)-1H-1,2,3-triazol-4-yl)-7-(2-(piperidin-1-yl)ethoxy)-2H-chromen-2-one]",neurotoxicity,[7],non-neurotoxic; also recorded: neurotoxicity in high concentrations
same,"viability at 24 h, 12.5 µM","[8]; 12.5 μM, 24 h, MTT, read-out: Cell viability (% of control)",71%
same,"viability at 24 h, 25 µM","[8]; 25.0 μM, 24 h, MTT, read-out: Cell viability (% of control)",70%
same,"viability at 24 h, 50 µM","[8]; 50.0 μM, 24 h, MTT, read-out: Cell viability (% of control)",63%
same,viability at 24 h,"[8]; up to 25 μM, read-out: cell viability",≥ 70%
same,IC50,[4],4.16 ± 0.11 nM
same,SI,[4],686
same,IC50,"[9]; Human AChE, Ellman method, read-out: IC50(nM) ± SD AChE (hAChE) (converted)",12.5 nM
same,SI,[9]; SI = EqBChE IC50/hAChE,222
same,IC50,[5],2880 ± 120 nM
same,Ki,[10]; [14],615 ± 0.58 nM
same,Ki,"[10]; free enzyme (Table S3), read-out: Ki ± SE (95% CI)",944 ± 200 nM
same,α ± SE (95% CI),[10]; [15],3.349 ± 1.984
same,Vmax ± SD,[10]; inhibitor 1.9 μM,5.97 ± 0.1562 1 × 10^3 nM/min
same,Vmax ± SD,[10]; inhibitor 3.9 μM,4.12 ± 0.2257 1 × 10^3 nM/min
same,viability at 12.5 µM,[11],68%
same,Ki,[12]; [14],0.508 ± 0.0001 nM
same,Ki,"[12]; corrected for tight-binding using the Morrison equation (Table S3), read-out: Ki ± SE (95% CI)",0.637 nM
same,α ± SE (95% CI),[12]; [15],4.248 ± 1.415
same,Vmax ± SD,[12]; inhibitor 0.003 μM,5.21 ± 0.0656 1 × 10^3 nM/min
same,Vmax ± SD,[12]; inhibitor 0.005 μM,3.90 ± 0.1517 1 × 10^3 nM/min
CN(C)c1ccc(-c2cc3ccc(OCCN4CCCCC4)cc3oc2=O)cc1 [Compound 2],IC50,[13],6370 nM
